Publication PMC9881673, “Investigating the potential anticancer activities of antibiotics as topoisomerase II inhibitors and DNA intercalators: in vitro, molecular docking, molecular dynamics, and SAR studies” (Journal of Enzyme Inhibition and Medicinal Chemistry, 2023)

Tests used:
[1] = molecular target: T1, TOP-2 enzyme (Homo sapiens, UniProt P11388); test: Topoisomerase II inhibitory assay (TopoGEN plasmid-based kit, DNA decatenation); format: biochemical; details: decatenation of DNA by TOP-2; read-out: IC50 (TOP-2 inhibition)
T1 construct: purchased TOPOGEN, CO, USA TG1001
Procedure: SP, RO, AZ, CL, and ER (as ethyl succinate) were provided from NODQCAR at a purity > 99.87%. Human mammary tumours, hepatocellular carcinoma (HepG2), and colorectal cancer (HCT-116) cell lines were obtained from VACSERA; Egypt. RPMI 1640 doped with 10% FBS was provided from VACSERA; Egypt. The inhibitory potential against TOP-2 was assessed by the Topo GEN assay kit (TOPOGEN, CO, USA).
Results were reported as IC50 and compared to DOX.

[2] = MTT antiproliferative assay, HCT-116; format: cell-based; details: human, HCT-116 colorectal carcinoma cells, HCT-116, MTT, read-out: IC50 (cytotoxicity)
Procedure: (§1) DOX was used as standard (920 µM).

[3] = MTT antiproliferative assay, HepG-2; format: cell-based; details: human, HepG-2 hepatocellular carcinoma cells, HepG-2, MTT, read-out: IC50 (cytotoxicity)
Procedure: as §1

[4] = in vitro; details: human, MCF-7 breast cancer cells

T1 sequence (P11388 whole entry): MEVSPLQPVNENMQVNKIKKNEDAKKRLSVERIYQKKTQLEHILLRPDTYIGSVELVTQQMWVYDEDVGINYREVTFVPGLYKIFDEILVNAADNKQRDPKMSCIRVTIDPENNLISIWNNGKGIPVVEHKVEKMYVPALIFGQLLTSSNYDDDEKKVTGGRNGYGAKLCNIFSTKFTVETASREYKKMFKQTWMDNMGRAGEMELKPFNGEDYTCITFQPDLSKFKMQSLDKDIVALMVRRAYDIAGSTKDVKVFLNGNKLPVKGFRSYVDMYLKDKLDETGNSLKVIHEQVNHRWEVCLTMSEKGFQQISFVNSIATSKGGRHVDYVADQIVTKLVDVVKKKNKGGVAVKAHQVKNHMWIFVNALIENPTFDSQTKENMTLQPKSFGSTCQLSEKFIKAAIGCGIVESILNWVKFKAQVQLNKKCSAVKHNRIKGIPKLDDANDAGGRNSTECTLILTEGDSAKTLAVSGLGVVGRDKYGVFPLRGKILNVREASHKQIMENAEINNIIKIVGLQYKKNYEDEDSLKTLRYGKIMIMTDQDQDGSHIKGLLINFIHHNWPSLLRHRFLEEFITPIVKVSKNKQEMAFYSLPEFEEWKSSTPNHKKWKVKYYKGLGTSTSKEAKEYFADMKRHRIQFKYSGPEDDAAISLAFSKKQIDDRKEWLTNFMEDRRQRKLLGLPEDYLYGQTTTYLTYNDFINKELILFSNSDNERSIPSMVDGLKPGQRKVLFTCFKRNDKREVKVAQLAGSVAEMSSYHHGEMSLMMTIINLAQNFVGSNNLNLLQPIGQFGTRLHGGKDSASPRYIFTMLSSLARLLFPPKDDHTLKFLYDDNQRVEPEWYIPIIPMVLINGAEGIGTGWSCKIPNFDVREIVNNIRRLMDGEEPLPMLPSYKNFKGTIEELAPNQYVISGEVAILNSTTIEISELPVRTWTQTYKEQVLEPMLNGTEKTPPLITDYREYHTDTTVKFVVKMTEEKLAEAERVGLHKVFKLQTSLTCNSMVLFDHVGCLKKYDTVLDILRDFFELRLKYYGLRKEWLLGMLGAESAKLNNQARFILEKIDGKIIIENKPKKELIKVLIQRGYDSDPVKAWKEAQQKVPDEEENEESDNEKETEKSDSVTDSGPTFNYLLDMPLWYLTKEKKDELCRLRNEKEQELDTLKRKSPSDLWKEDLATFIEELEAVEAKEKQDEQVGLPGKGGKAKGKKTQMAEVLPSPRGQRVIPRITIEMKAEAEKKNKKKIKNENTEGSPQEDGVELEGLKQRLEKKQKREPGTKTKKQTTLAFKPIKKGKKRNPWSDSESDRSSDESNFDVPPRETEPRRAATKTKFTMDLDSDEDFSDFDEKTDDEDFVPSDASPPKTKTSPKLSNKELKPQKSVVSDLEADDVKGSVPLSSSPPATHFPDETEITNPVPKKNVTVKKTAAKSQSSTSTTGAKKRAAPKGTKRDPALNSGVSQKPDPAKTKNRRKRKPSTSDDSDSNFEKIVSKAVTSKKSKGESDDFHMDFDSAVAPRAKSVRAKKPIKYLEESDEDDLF

IC50 [1] [µM]	IC50 at 24 h [4] [µM]	Compound	IC50 at 24 h [2] [µM]	IC50 at 24 h [3] [µM]
36.1 ± 2.11		CC[C@H]1OC(=O)[C@H](C)[C@@H](O[C@H]2C[C@@](C)(OC)[C@@H](O)[C@H](C)O2)[C@H](C)[C@@H](O[C@@H]2O[C@H](C)C[C@H](N(C)C)[C@H]2O)[C@](C)(O)C[C@@H](C)CN(C)[C@H](C)[C@@H](O)[C@]1(C)O [AZ, azithromycin]	2.08 ± 0.05	32 ± 0.18
13.1 ± 0.77	7.9 ± 0.79	CC[C@H]1OC(=O)[C@H](C)[C@@H](O[C@H]2C[C@@](C)(OC)[C@@H](O)[C@H](C)O2)[C@H](C)[C@@H](O[C@@H]2O[C@H](C)C[C@H](N(C)C)[C@H]2O)[C@](C)(O)C[C@@H](C)/C(=N\OCOCCOC)[C@H](C)[C@@H](O)[C@]1(C)O [RO, roxithromycin]	0.097 ± 0.024	32 ± 0.18
11.6 ± 0.7		CC[C@H]1OC(=O)[C@H](C)[C@@H](O[C@H]2C[C@@](C)(OC)[C@@H](O)[C@H](C)O2)[C@H](C)[C@@H](O[C@@H]2O[C@H](C)C[C@H](N(C)C)[C@H]2O)[C@](C)(O)C[C@@H](C)C(=O)[C@H](C)[C@@H](O)[C@]1(C)O [ER, erythromycin]		
21.2 ± 1.19	0.67 ± 0.43	COC1C(O)CC(=O)OC(C)CC=CC=CC(OC2CCC(N(C)C)C(C)O2)C(C)CC(CC=O)C1OC1OC(C)C(OC2CC(C)(O)C(O)C(C)O2)C(N(C)C)C1O (centres unmarked) [SP, spiramycin]	12.2 ± 3.27	20.9 ± 1.33
25.6 ± 1.08	1.39 ± 0.15	CC[C@H]1OC(=O)[C@H](C)[C@@H](O[C@H]2C[C@@](C)(OC)[C@@H](O)[C@H](C)O2)[C@H](C)[C@@H](O[C@@H]2O[C@H](C)C[C@H](N(C)C)[C@H]2O)[C@](C)(OC)C[C@@H](C)C(=O)[C@H](C)[C@@H](O)[C@]1(C)O [CL, clarithromycin]	2.74 ± 0.42	14.8 ± 0.15
6.37 ± 0.38	0.49 ± 0.1	COc1cccc2c1C(=O)c1c(O)c3c(c(O)c1C2=O)C[C@@](O)(C(=O)CO)C[C@@H]3O[C@H]1C[C@H](N)[C@H](O)[C@H](C)O1 [DOX, doxorubicin]	1.6 ± 0.05	3.6 ± 0.07
